Laboratory results from patent US20240010684A1, “MASP INHIBITORY COMPOUNDS AND USES THEREOF” (BAYER AKTIENGESELLSCHAFT, priority 2020, published 2024).
Where a SMILES comes first, the peptide text is derived from it. Bridges are numbered along the chain shown (N, C = ends). [ ]: non-standard residue; d: D form. Oic = O=C(O)[C@@H]1C[C@@H]2CCCC[C@@H]2N1; tBuAla = CC(C)(C)C[C@H](N)C(=O)O; Pen = CC(C)(S)[C@H](N)C(=O)O; NMeC = CN[C@@H](CS)C(=O)O; Dap = NC[C@H](N)C(=O)O; PEG2 = NCCOCCOCCC(=O)O; Ahx = NCCCCCC(=O)O

Assays:
human MASP2 = human MASP2 (Homo sapiens (Human), UniProt O00187); assay: Biochemical human MASP2 assay (FRET substrate); conditions: Average IC50; recombinant human MASP2; read-out: human MASP2 IC50
Chain of human MASP2 (O00187 other isoform, or with tags, fused parts or gaps): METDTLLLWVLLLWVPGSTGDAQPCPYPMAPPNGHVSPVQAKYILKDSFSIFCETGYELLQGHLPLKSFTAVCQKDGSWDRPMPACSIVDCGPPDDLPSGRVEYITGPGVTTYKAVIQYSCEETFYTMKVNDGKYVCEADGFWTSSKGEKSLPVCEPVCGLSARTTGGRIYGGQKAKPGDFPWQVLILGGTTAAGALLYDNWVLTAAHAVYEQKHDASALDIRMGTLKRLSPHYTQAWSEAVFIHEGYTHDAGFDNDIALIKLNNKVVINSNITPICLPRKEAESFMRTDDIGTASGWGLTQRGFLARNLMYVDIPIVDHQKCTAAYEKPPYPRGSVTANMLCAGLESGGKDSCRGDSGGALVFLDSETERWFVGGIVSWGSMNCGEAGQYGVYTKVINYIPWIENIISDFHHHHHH
Text: The MASP1 or MASP2 expression vectors were transfected into the HEK293 (ATCC No. CRL-1573) cell line using Lipofectamine LTX® Reagent (Thermo-Fischer), as described by the manufacturer. The mature form of the recombinant human MASP1 and M[…] were secreted into the culture medium. The MASP1 and M[…] were purified from the conditioned media by affinity chromatography on Ni-NTA Superflow resin (Qiagen) as described by the manufacturer. 2.3 Biochemical Human MASP2 Assay […] The enzymatic reaction was initiated by addition of 25 μl of 60 μM solution of the FRET substrate DABCYL-[…]; […] The microtiter plate was incubated for 60-120 min at the temperature of 32 C. The increase of fluorescence intensity was measured in appropriate fluorescence plate reader (e.g. TECAN Ultra) using excitation wavelength of 340 nm and emission wavelength of 490 nm. IC50 values were calculated from percentage of inhibition of human MASP2 activity as a function of test compound concentration.

human MASP1 = human MASP1 (Homo sapiens (Human), UniProt P48740); assay: Biochemical human MASP1 assay (FRET substrate); conditions: Average IC50; recombinant human MASP1; read-out: human MASP1 IC50
Chain of human MASP1 (P48740 other isoform, or with tags, fused parts or gaps): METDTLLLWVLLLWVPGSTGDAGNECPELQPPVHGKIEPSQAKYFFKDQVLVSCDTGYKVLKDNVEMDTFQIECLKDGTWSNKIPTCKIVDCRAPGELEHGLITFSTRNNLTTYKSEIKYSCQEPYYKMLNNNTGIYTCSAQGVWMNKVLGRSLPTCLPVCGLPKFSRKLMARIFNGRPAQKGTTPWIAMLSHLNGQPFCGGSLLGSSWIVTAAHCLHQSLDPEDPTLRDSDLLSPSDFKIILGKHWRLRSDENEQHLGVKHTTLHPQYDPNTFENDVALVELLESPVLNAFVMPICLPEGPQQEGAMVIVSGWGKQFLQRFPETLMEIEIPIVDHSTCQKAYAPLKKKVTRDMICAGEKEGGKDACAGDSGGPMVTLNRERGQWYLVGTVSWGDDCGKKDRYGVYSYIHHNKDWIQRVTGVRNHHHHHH
Text: A truncated cDNA sequence of human MASP1 encoding the fragment corresponding to the amino acids 297-699 with a C-terminal His Tag and N-terminal Ig-kappa secretion signal (SEQ ID No: 2) was subcloned into the mammalian expression vector pcDNA3.1 (Invitrogen).
The MASP1 or MASP2 expression vectors were transfected into the HEK293 (ATCC No. CRL-1573) cell line using Lipofectamine LTX® Reagent (Thermo-Fischer), as described by the manufacturer. The mature form of the recombinant human MASP1 and MASP2 proteases were secreted into the culture medium. The MASP1 and MASP2 proteins were purified from the conditioned media by affinity chromatography on Ni-NTA Superflow resin (Qiagen) as described by the manufacturer.
2.2 Biochemical Human MASP1 Assay
Recombinant human MASP1 enzyme produced in the HEK 293 cells was diluted in the reaction buffer (50 mM HEPES pH 8,0; 100 mM NaCl; 0,01% CHAPS; 0.5 mM Gluthathione) to the concentration of 20 nM and 25 μl was transferred into each single well of 384-well white microtiter plate (Greiner Bio One 781075). 1 μl of the inhibitor compound solution (dissolved in DMSO, at the corresponding concentration) or pure DMSO as a control was added to the same wells. The enzymatic reaction was initiated by addition of 25 μl of 20 μM solution of the FRET substrate ABZ-[…]-Lys (Dnp)-NH2; (ABZ-2-aminobenzoyl; DNP 2,4-dinitrophenyl; custom synthesis by Jerini Peptide Technologies, Berlin) in the reaction buffer. The microtiter plate was incubated for 60-120 min at the temperature of 32 C. The increase of fluorescence intensity was measured in appropriate fluorescence plate reader (e.g. TECAN Ultra) using excitation wavelength of 320 nm and emission wavelength of 420 nm. IC50 values were calculated from percentage of inhibition of human MASP1 activity as a function of test compound concentration.

Structure (SMILES)	IC50 (human MASP2)	IC50 (human MASP1)
CC[C@H](C)[C@@H]1NC(=O)CNC(=O)CNC(=O)[C@@H](N)CNC(=O)[C@H](CC(=O)O)NC(=O)[C@@H]2CCCN2C(=O)[C@H]([C@@H](C)CC)NC(=O)[C@@H]2CSSC[C@H](NC1=O)C(=O)N[C@@H](CO)C(=O)N[C@@H](CCCNC(=N)N)C(=O)N[C@@H](CO)C(=O)N[C@@H](CC(C)C)C(=O)N1CCC[C@H]1C(=O)N1CCC[C@H]1C(=O)N[C@@H]([C@@H](C)CC)C(=O)N2 [Example 20] (H-[Dap]GGICSRSLPPICIPD; lactam 1-C; disulfide 5-13)	110 nM	55 nM
CC[C@H](C)[C@@H]1NC(=O)[C@H](C)NC(=O)CCOCCOCCNC(=O)[C@H](CC(=O)O)NC(=O)[C@@H]2CCCN2C(=O)[C@H]([C@@H](C)CC)NC(=O)[C@H]2NC(=O)[C@H]([C@@H](C)CC)NC(=O)[C@@H]3CCCN3C(=O)[C@@H]3CCCN3C(=O)[C@H](CC(C)(C)C)NC(=O)[C@H](CO)NC(=O)[C@H](CCCNC(=N)N)NC(=O)[C@H](CO)NC(=O)[C@H](CSSC2(C)C)NC1=O [Example 34] (cyclo(AICSRS[tBuAla]PPI[Pen]IPD[PEG2]); disulfide 3-11)	98 nM	11 nM
CC[C@H](C)[C@@H]1NC(=O)CNC(=O)CCCCCNC(=O)C[C@@H](C(N)=O)NC(=O)[C@@H]2CCCN2C(=O)[C@H]([C@@H](C)CC)NC(=O)[C@@H]2CSSC[C@H](NC1=O)C(=O)N[C@@H](CO)C(=O)N[C@@H](CCCNC(=N)N)C(=O)N[C@@H](CO)C(=O)N[C@@H](CC(C)(C)C)C(=O)N1CCC[C@H]1C(=O)N1CCC[C@H]1C(=O)N[C@@H]([C@@H](C)CC)C(=O)N2C [Example 40] ([Ahx]GICSRS[tBuAla]PPI[NMeC]IPD-NH2; disulfide 4-12; lactam N-15)	90 nM	7.1 nM
CC[C@H](C)[C@@H]1NC(=O)CNC(=O)CNC(=O)[C@H](CC(=O)O)NC(=O)[C@@H]2CCCN2C(=O)[C@H]([C@@H](C)CC)NC(=O)[C@@H]2CSSC[C@H](NC1=O)C(=O)N[C@@H](CO)C(=O)N[C@@H](CCCNC(=N)N)C(=O)N[C@@H](CO)C(=O)N[C@@H](CC(C)C)C(=O)N1CCC[C@H]1C(=O)N1CCC[C@H]1C(=O)N[C@@H]([C@@H](C)CC)C(=O)N2 [Example 15, [(6S,9S,12S,15S,18R,21S,30S,32aS,38S,41R,44S,46aS,51aS)-21,38,44-tri[(2S)-butan-2-yl]-12-(3-carbamimidamidopropyl)-9,15-bis(hydroxymethyl)-6-(2-methylpropyl)-5,8,11,14,17,20,23,26,29,32,37,40,43,46,51-pentadecaoxopentacontahydro-1H-18,41-(methanodithiomethano)tripyrrolo[1,2-a:1′,2′-d:1″,2″-p][1,4,7,10,13,16, 19,22,25,28,31,34,37,40,43]pentadecaazacyclopentatetracontin-30-yl]acetic acid] (cyclo(CIPDGGICSRSLPPI); disulfide 1-8)	300 nM	120 nM
CC[C@H](C)[C@@H]1NC(=O)CNC(=O)CCOCCOCCNC(=O)[C@H](CC(=O)O)NC(=O)[C@@H]2CCCN2C(=O)[C@H]([C@@H](C)CC)NC(=O)[C@@H]2CSSC[C@H](NC1=O)C(=O)N[C@@H](CO)C(=O)N[C@@H](CCCNC(=N)N)C(=O)N[C@@H](CO)C(=O)N[C@@H](CC(C)C)C(=O)N1CCC[C@H]1C(=O)N1CCC[C@H]1C(=O)N[C@@H]([C@@H](C)CC)C(=O)N2 [Example 24] (cyclo(CIPD[PEG2]GICSRSLPPI); disulfide 1-8)	210 nM	110 nM
CC[C@H](C)[C@@H]1NC(=O)[C@@H](C)NC(=O)CCCCCNC(=O)CC[C@@H](C(N)=O)NC(=O)[C@@H]2CCCN2C(=O)[C@H]([C@@H](C)CC)NC(=O)[C@H]2NC(=O)[C@H]([C@@H](C)CC)NC(=O)[C@@H]3C[C@@H]4CCCC[C@@H]4N3C(=O)[C@@H]3CCCN3C(=O)[C@H](CC(C)C)NC(=O)[C@H](CO)NC(=O)[C@H](CCCNC(=N)N)NC(=O)[C@H](CO)NC(=O)[C@H](CSSC2(C)C)NC1=O [Example 79] ([Ahx][dA]ICSRSLP[Oic]I[Pen]IPE-NH2; disulfide 4-12; lactam N-15)	45 nM	22 nM
